How the values were obtained:
Type in all cases: cell-based
[1] = tested on: U937 cells; experiment: AK release bioluminescence assay, U937 cells incubated with camptothecin
Experimental: (§1) A number of different cell types have been tested for induction of cytotoxicity with soluble agents. Cytolysis is determined after incubation with the agent, when the cell membrane has lost integrity and AK can ‘leak’ out into the surrounding culture medium. The assay is performed by incubating non-microbial (e.g. mammalian) cells, either cell lines or primary cell types including isolated tumour cells, with the agonist(s) of choice. After an appropriate incubation time the cells are simply removed from the incubator and AK activity determined in the culture supernatant. If the cells have been cultured in clear bottomed, white walled plates (Perkin Elmer Life Sciences) in volumes no greater than 100 μl, then the plates are simply placed in a luminometer equipped with injection facilities and 150 μl of AKR added to each of the wells, where an integral reading of light output is measured over 1 second. When using luminometers without injectors the AKR can be added manually preferably using a multichannel pipette. The light output is read as soon after addition of reagent as possible. The increase in light output over the complete medium control is the result of the leakage of AK from damaged cells as a result of incubation with cytolytic inducing substances.
Example 2: A second model known to induce secondary necrosis is the incubation of U937 cells (ECACC No: 87010802) with camptothecin (Sigma). The cells were set up in triplicate wells of a white Isoplate™ (Perkin Elmer Life Sciences) at serial doubling dilutions of cells with 1000 nM camptothecin. The cells were then incubated with the drug for 4 hours and AK activity was determined as outlined in example 1. […] In the control cells there was a slight increase in AK activity over the complete medium control, but the increase in the presence of the drug was much greater, nearly 3 fold (2.6).

[2] = tested on: Cem-7 cells; experiment: AK (adenylate kinase) release bioluminescence assay, Cem-7 cells incubated with dexamethasone
Experimental: as §1
Example 1: We have investigated 37 different cell lines and models of apoptosis/necrosis induction. One of the first models investigated for this assay was the incubation of Cem-7 cells with dexamethasone. Two different experiments were performed: one experiment where cells at different cell numbers/well were incubated with one concentration of dexamethasone (500 nM, Sigma) for 48 and 72 hours, and another experiment where cells at 5000/well were incubated with increasing concentrations of the agent (0, 10, 25, 50, 75, 100, 150, 200 nM) for 72 hours. The cell suspensions were incubated in 100 μl in triplicate wells of a 96 well clear-bottomed white walled microtitre plate (Perkin Elmer Isoplate™). At the end of the incubation period the plates were assayed for AK activity using the Wallac Microbeta Jet, with 150 μl of AKR added and the RLUs (1 second integral) read at time 0 and every 5 minutes for 45 minutes. […] At 2500 cells per well the activity had increased by 71% from 15 913 RLUs at 48 hours to 27 266 RLUs at 72 hours.

[3] = tested on: K562 cells; experiment: AK release bioluminescence assay, K562 cells incubated with ionomycin; parameters: cytolysis versus control cells at the lowest concentration: dose or concentration left out as unconfirmed
Experimental: as §1
Example 3: Ionomycin is a calcium ionophore that acts as a mobile ion carrier for Ca^2+. We investigated increasing concentrations of this agent on K562 cells. As with the previous examples, the cells were set up in 100 μl volumes in triplicate wells of a 96 well Isoplate™. The concentrations of ionomycin (Sigma) used were […]. Cells were incubated for three hours in the presence of the agent prior to determination of AK activity. The data shown in FIG. 7 are for the 1-second integral reading taken at time 0 using the Wallac MicroBeta Jet.

[4] = camptothecin from 50 to 1000 μM, cells at 2500/well

## CC[C@@]1(O)C(=O)OCc2c1cc1n(c2=O)Cc2cc3ccccc3nc2-1 [camptothecin]
[1]; 1000 nM camptothecin, 4 hours
  increase in AK activity in the presence of the drug: 2.6 fold
[1]; 1000 nM camptothecin, 4 hours, serial doubling dilutions of cells
  cell numbers at which the increase in activity was seen: above 156 /well
[1]; [4]
  concentration at which cytolysis appears: 100 µM
  enzyme (AK) activity with increasing concentrations: concentration dependent increase in enzyme activity

## C[C@@H]1C[C@H]2[C@@H]3CCC4=CC(=O)C=C[C@]4(C)[C@@]3(F)[C@@H](O)C[C@]2(C)[C@@]1(O)C(=O)CO [dexamethasone]
[2]; 200 nM dexamethasone, 72 hours, 5000 cells/well
  AK release: 16900 RLU
[2]; 500 nM dexamethasone, 2500 cells per well
  increase in AK activity from 48 hours to 72 hours: 71%
[2]; 500 nM dexamethasone, 48 hours, 2500 cells per well
  AK activity: 15 913 RLUs
[2]; 500 nM dexamethasone, 72 hours, 2500 cells per well
  AK activity: 27 266 RLUs

## C[C@H](CCC(=O)O)C[C@H](C)C[C@H](C)C(=O)/C=C(\O)[C@H](C)C[C@H](C)C/C=C/[C@@H](C)[C@@H](O)[C@@H](C)[C@@H](O)C[C@@H]1CC[C@@](C)([C@H]2CC[C@@](C)([C@@H](C)O)O2)O1 [Ionomycin]
[3]; FIG. 7, increasing concentrations of ionomycin
  AK activity with all concentrations of the agent: significant increase in AK activity
[3]; ionomycin 1, 2, 3, 4 and 5 mM, three hours, time 0 reading
  effect on AK activity with increasing concentrations: concentration dependent effect
[3]; lowest ionomycin concentration, three hours
  cytolysis versus control cells at the lowest concentration: significant increase in cytolysis

— patent US20030008338A1, “Assay methods and kits therefor” (LumiTech (UK) Limited, priority 2000, published 2003)
